According to PubChem BioAssay (NCI):
“And” between values parts separate entries of the source, which are not always exact repeats. Equal entries are not always repeated.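 How tested: cells in 96-well plates exposed to compound for 48 hours at five concentrations. At the GI50, growth is halved. TGI denotes the concentration required for complete inhibition of growth.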

Assays:
Assay in all cases: inhibition of tumour cell growth, NCI panel, 48 h
CAKI-1 renal = test system: CAKI-1 renal
COLO 205 colon = test system: COLO 205 colon
EKVX NSCLC = test system: EKVX NSCLC
HCC-2998 colon = test system: HCC-2998 colon
HOP-62 NSCLC = test system: HOP-62 NSCLC
LOX IMVI melanoma = test system: LOX IMVI melanoma
MDA-N = test system: MDA-N
NCI-H522 lung = test system: NCI-H522 lung
OVCAR-5 ovarian = test system: OVCAR-5 ovarian
SK-MEL-28 melanoma = test system: SK-MEL-28 melanoma

Row | Structure (SMILES) | TGI (CAKI-1 renal) | TGI (COLO 205 colon) [µM] | TGI (EKVX NSCLC) | TGI (HCC-2998 colon) | TGI (HOP-62 NSCLC) | TGI (LOX IMVI melanoma) | TGI (MDA-N) | TGI (NCI-H522 lung) [µM] | TGI (OVCAR-5 ovarian) | TGI (SK-MEL-28 melanoma) | GI50 (CAKI-1 renal) [µM] | GI50 (EKVX NSCLC) [µM] | GI50 (HCC-2998 colon) [µM] | GI50 (HOP-62 NSCLC) [µM] | GI50 (LOX IMVI melanoma) [µM] | GI50 (MDA-N) [µM] | GI50 (OVCAR-5 ovarian) [µM] | GI50 (SK-MEL-28 melanoma) [µM]
1 | [O-]/[N+](=C\c1ccccc1OC(=S)S)c1ccc(Cl)cc1 | > 100 µM | 26.7 | > 100 µM | > 100 µM | > 100 µM | 38.8 µM | > 100 µM | 52.8 | > 100 µM | > 100 µM | – | – | – | – | – | – | – | –
2 | COC(=O)C1(Cc2ccc3c(c2)CCC3)Cc2ccccc2C1 | > 100 µM | 67.8 | > 100 µM | > 100 µM | > 100 µM | > 100 µM | > 100 µM | 77.1 | > 100 µM | > 100 µM | – | – | – | – | – | – | – | –
3 | CC(=O)c1ccc2c(c1)CC1(C2)Cc2ccccc2C1=O (stereo not drawn) | > 100 µM | > 100 | > 100 µM | > 100 µM | > 100 µM | > 100 µM | > 100 µM | 99.6 | > 100 µM | > 100 µM | – | – | – | – | – | – | – | –
4 | CC(C)OC(=O)OCSc1ccccc1N=Cc1cccc([N+](=O)[O-])c1 | > 10 µM | > 10 | > 10 µM | > 10 µM | > 10 µM | > 10 µM | > 10 µM | > 10 | > 10 µM | > 10 µM | – | – | – | – | – | – | – | –
5 | N#Cc1c(-c2ccccc2)cc(-c2ccc(Cl)cc2)[nH]c1=S | > 100 µM | 71.1 | 70.4 µM | > 100 µM | > 100 µM | > 100 µM | > 100 µM | 70.5 | > 100 µM | 80.1 µM | – | – | – | – | – | – | – | –
6 | CCOC(=O)c1cn2c(n1)sc1cc(Cl)cc(Cl)c12 | > 100 µM | > 100 | > 100 µM | > 100 µM | > 100 µM | > 100 µM | > 100 µM | > 100 | > 100 µM | > 100 µM | – | – | – | – | – | – | – | –
7 | C=C(CN(C)C)C(=O)c1ccccc1[N+](=O)[O-] | 28.2 µM and 2.88 µM | 21.2 | > 59.3 µM and 49 µM | > 56.5 µM and 29.2 µM | > 100 µM and 36.6 µM | 15 µM and 15.5 µM | 27.9 µM and 25.3 µM | 7.74 | 29.4 µM and 31.1 µM | 34.1 µM and 51.6 µM | 1.55 | 23 | 15.3 | 17.7 | 3.98 | 10.6 | 16.3 | 18.8
8 | Cc1ccc(C2=CC(=O)/C(=C\C(=O)c3ccc(Cl)cc3)O2)cc1 | 4.38 µM | 26.1 | > 100 µM | 51.1 µM | > 100 µM | 3.31 µM | 16.2 µM | 4.99 | 40.6 µM | 33.1 µM | – | – | – | – | – | – | – | –
9 | O=C(Nc1noc(-c2ccccc2)n1)c1ccccc1CNc1noc(-c2ccccc2)n1 | > 100 µM | > 100 | > 100 µM | > 100 µM | > 100 µM | > 100 µM | > 100 µM | > 100 | > 100 µM | > 100 µM | – | – | – | – | – | – | – | –
10 | COC1CC(OC2CCC3(C)C(=CCC4C3C(OC(C)=O)C(OC(=O)CC(C)C)C3(C)C(C(C)=O)CCC43O)C2)OC(C)C1OC1CC(OC)C(OC2CC(OC)C(OC3OC(C)C(OC4OC(CO)C(O)C(O)C4O)C(OC)C3O)C(C)O2)C(C)O1 (stereo not drawn) | > 75 µM | > 75 | > 75 µM | > 75 µM | > 75 µM | > 75 µM | > 75 µM | > 75 | > 75 µM | > 75 µM | – | – | – | – | – | – | – | –
11 | CCOC(=O)/C=C(\C(=O)OCC)n1ccc(=O)n(Cc2cn(COCCOC(C)=O)nn2)c1=O | 21.2 µM | 24.2 | 38.9 µM | 30.2 µM | > 100 µM | 34.9 µM | > 100 µM | 8.34 | 55.2 µM | 41 µM | – | – | – | – | – | – | – | –
12 | CCOC(=O)c1nnsc1NN | > 100 µM | > 100 | > 100 µM | > 100 µM | > 100 µM | > 100 µM | > 100 µM | > 100 | > 100 µM | > 100 µM | – | – | – | – | – | – | – | –
13 | NC(=O)N/N=C1\CC2C3CC4C2C4C13 (stereo not drawn) | > 100 µM | > 100 | > 100 µM | > 100 µM | > 100 µM | > 100 µM | > 100 µM | > 100 | > 100 µM | > 100 µM | – | – | – | – | – | – | – | –
14 | O=c1[nH]nc(Cc2ccccc2)n1/N=C/c1ccncc1 | > 100 µM | > 100 | > 100 µM | > 100 µM | > 100 µM | > 100 µM | > 100 µM | > 100 | > 100 µM | > 100 µM | – | – | – | – | – | – | – | –
15 | COc1cc(/C=C/C=C2\CC/C(=C\C=C\c3ccc(O)c(OC)c3)C2=O)ccc1O | > 100 µM | > 100 | > 100 µM | > 100 µM | > 100 µM | > 100 µM | > 100 µM | 25.9 | > 100 µM | > 100 µM | – | – | – | – | – | – | – | –
16 | O=[N+]([O-])c1ccc2c(c1)C1=NN(c3ccccc3)C(c3ccccc3Br)C1CCC2 (stereo not drawn) | > 50 µM | > 50 | > 50 µM | > 50 µM | > 50 µM | > 50 µM | > 50 µM | > 50 | > 50 µM | > 50 µM | – | – | – | – | – | – | – | –
